Measurements from US20100035755A1, “METHOD OF CONTROLLING WEEDS IN A TURF GRASS BY USING SULFONYLUREA COMPOUNDS” (Moghu Research Center Ltd., priority 2008, published 2010).
“Also recorded” adds a separate entry of the source.

What was measured:
Viola arvensis = assay: Actual field condition test of Example 2 (turf grass field); assay type: in vivo; conditions: 50 g ai/ha
Experimental: The test chemical of the Example 2 was applied to a turf grass field, in which Viola arvensis as a representative hard-to-control perennial weed is thriving predominantly, to evaluate a weed control effect of the compound. The experiment was carried out from May to June, 2007 in the turf grass field within Korea Research Institute of Bioscience and Biotechnology (52, Ueun-dong, Yusong-gu, Daejon, South Korea). Fourteen days after the chemical application, the turf grass was cut once.

Perennial rye grass = assay: Turf grass selectivity, greenhouse pot test; assay type: in vivo
Excerpt: (§1) Turf mats of Zoysia grass, bentgrass, Kentucky bluegrass, or perennial rye grass known as cool season turfgrass or western grass were purchased and cut into a piece having 10 cm×20 cm size. Then, each piece was transplanted in a rectangular plastic pot (surface area of 300 cm^2) in which sandy loam and mixed top soil (Boo-Nong Top Soil No. 3, for horticultural use) are filled in 1:1 ratio. After the transplantation, the grasses were cut once a week to maintain the blade height at 0.5-1.0 cm and cultivated for one month in a green house of which temperature was kept at 25˜30° C. for daytime and 15˜25° C. for nighttime, respectively. Then, the ‘test chemical’ of the above Examples 1 and 2 or ‘control chemical’ was applied thereto in an amount of 400, 200, 100, 50, 25, 12, 6, 3 g ai/ha. As a “control chemical”, pyrazolsulfuron ethyl wettable agent (manufactured by Dongbu Fine Chemicals; herein after, referred to as ‘control chemical No. 1’) and flazasulfuron (manufactured by Dongbu HiTek; herein after, referred to as ‘control chemical No. 2’), both sulfonylurea herbicides for a turf grass, were used. Application was carried out by using a track sprayer (R&D Sprayer, USA) equipped with Teejet 8002 nozzle (Spraying Systems Co., USA), and the application amount was adjusted to 2,000 L/ha, which is a typical application amount for a golf course in Korea. Application solution was prepared by diluting the “test chemical” or the “control chemical” with tap water. […] The test was repeated three times in a random arrangement and the results are given in average value of each test (see Table 2 below).

Zoysia japonica = assay: Turf grass selectivity, greenhouse pot test; assay type: in vivo; conditions: for phytotoxicity (visual assessment 0-10): Zoysia japonica
Excerpt: as §1

Kentucky bluegrass = assay: Turf grass selectivity, greenhouse pot test; assay type: in vivo, Poa pratensis
Excerpt: as §1

cool season turfgrass = assay: Turf grass selectivity, summary for cool season turfgrass; assay type: in vivo
Excerpt: Turf mats of Zoysia grass, bentgrass, Kentucky bluegrass, or perennial rye grass known as cool season turfgrass or western grass were purchased and cut into a piece having 10 cm×20 cm size. Then, each piece was transplanted in a rectangular plastic pot (surface area of 300 cm^2) in which sandy loam and mixed top soil (Boo-Nong Top Soil No. 3, for horticultural use) are filled in 1:1 ratio. After the transplantation, the grasses were cut once a week to maintain the blade height at 0.5-1.0 cm and cultivated for one month in a green house of which temperature was kept at 25˜30° C. for daytime and 15˜25° C. for nighttime, respectively. Then, the ‘test chemical’ of the above Examples 1 and 2 or ‘control chemical’ was applied thereto in an amount of 400, 200, 100, 50, 25, 12, 6, 3 g ai/ha. As a “control chemical”, pyrazolsulfuron ethyl wettable agent (manufactured by Dongbu Fine Chemicals; herein after, referred to as ‘control chemical No. 1’) and flazasulfuron (manufactured by Dongbu HiTek; herein after, referred to as ‘control chemical No. 2’), both sulfonylurea herbicides for a turf grass, were used. Application was carried out by using a track sprayer (R&D Sprayer, USA) equipped with Teejet 8002 nozzle (Spraying Systems Co., USA), and the application amount was adjusted to 2,000 L/ha, which is a typical application amount for a golf course in Korea. […]

warm season turf grass = conditions: background statement; zoysiagrass, Burmudagrass; cited from earlier work
cool season turf grass = conditions: background statement; creeping bentgrass, Kentucky bluegrass; cited from earlier work

SMILES: COc1nc(C)nc(NC(=O)NS(=O)(=O)c2cscc2C2(CF)OCCO2)n1 [Example 2, 3-(2-fluoromethyl-1,3-dioxalan-2-yl)-N-[(4-methoxy-6-methyltriazin-2-yl)aminocarbonyl]4-thiophene sulfonamide]
- Effect on Viola arvensis (Viola arvensis; After 7 days): 20
- Effect on Viola arvensis (Viola arvensis; After 14 days): 50
- phytotoxicity (visual assessment 0-10) (Perennial rye grass; 3 g ai/ha, 2 weeks): 3
- phytotoxicity (visual assessment 0-10) (Perennial rye grass; 3 g ai/ha, 4 weeks): 1
- phytotoxicity (visual assessment 0-10) (Perennial rye grass; 6 g ai/ha, 2 weeks): 5
- phytotoxicity (visual assessment 0-10) (Perennial rye grass; 6 g ai/ha, 4 weeks): 3
- phytotoxicity (visual assessment 0-10) (Perennial rye grass; 12 g ai/ha, 2 weeks): 7
- phytotoxicity (visual assessment 0-10) (Perennial rye grass; 12 g ai/ha, 4 weeks): 5
- phytotoxicity (visual assessment 0-10) (Perennial rye grass; 25 g ai/ha, 2 weeks): 10
- phytotoxicity (visual assessment 0-10) (Perennial rye grass; 25 g ai/ha, 4 weeks): 10
- phytotoxicity (visual assessment 0-10) (Perennial rye grass; 50 g ai/ha, 2 weeks): 10
- phytotoxicity (visual assessment 0-10) (Perennial rye grass; 50 g ai/ha, 4 weeks): 10
- phytotoxicity (visual assessment 0-10) (Perennial rye grass; 100 g ai/ha, 2 weeks): 10
- phytotoxicity (visual assessment 0-10) (Perennial rye grass; 100 g ai/ha, 4 weeks): 10
- phytotoxicity (visual assessment 0-10) (Perennial rye grass; 200 g ai/ha, 2 weeks): 10
- phytotoxicity (visual assessment 0-10) (Perennial rye grass; 200 g ai/ha, 4 weeks): 10
- phytotoxicity (visual assessment 0-10) (Perennial rye grass; 400 g ai/ha, 2 weeks): 10
- phytotoxicity (visual assessment 0-10) (Perennial rye grass; 400 g ai/ha, 4 weeks): 10
- safety to Zoysia japonica (Zoysia japonica; 100 g ai/ha or less): high safety
- phytotoxicity (visual assessment 0-10) (Zoysia japonica; 3 g ai/ha, 2 weeks): 0
- phytotoxicity (visual assessment 0-10) (Zoysia japonica; 3 g ai/ha, 4 weeks): 0
- phytotoxicity (visual assessment 0-10) (Zoysia japonica; 6 g ai/ha, 2 weeks): 0
- phytotoxicity (visual assessment 0-10) (Zoysia japonica; 6 g ai/ha, 4 weeks): 0
- phytotoxicity (visual assessment 0-10) (Zoysia japonica; 12 g ai/ha, 2 weeks): 0
- phytotoxicity (visual assessment 0-10) (Zoysia japonica; 12 g ai/ha, 4 weeks): 0
- phytotoxicity (visual assessment 0-10) (Zoysia japonica; 25 g ai/ha, 2 weeks): 0
- phytotoxicity (visual assessment 0-10) (Zoysia japonica; 25 g ai/ha, 4 weeks): 0
- phytotoxicity (visual assessment 0-10) (Zoysia japonica; 50 g ai/ha, 2 weeks): 0
- phytotoxicity (visual assessment 0-10) (Zoysia japonica; 50 g ai/ha, 4 weeks): 0
- phytotoxicity (visual assessment 0-10) (Zoysia japonica; 100 g ai/ha, 2 weeks): 1
- phytotoxicity (visual assessment 0-10) (Zoysia japonica; 100 g ai/ha, 4 weeks): 0
- phytotoxicity (visual assessment 0-10) (Zoysia japonica; 200 g ai/ha, 2 weeks): 2
- phytotoxicity (visual assessment 0-10) (Zoysia japonica; 200 g ai/ha, 4 weeks): 1
- phytotoxicity (visual assessment 0-10) (Zoysia japonica; 400 g ai/ha, 2 weeks): 4
- phytotoxicity (visual assessment 0-10) (Zoysia japonica; 400 g ai/ha, 4 weeks): 3
- phytotoxicity (visual assessment 0-10) (Kentucky bluegrass; 3 g ai/ha, 2 weeks): 3
- phytotoxicity (visual assessment 0-10) (Kentucky bluegrass; 3 g ai/ha, 4 weeks): 1
- phytotoxicity (visual assessment 0-10) (Kentucky bluegrass; 6 g ai/ha, 2 weeks): 5
- phytotoxicity (visual assessment 0-10) (Kentucky bluegrass; 6 g ai/ha, 4 weeks): 3
- phytotoxicity (visual assessment 0-10) (Kentucky bluegrass; 12 g ai/ha, 2 weeks): 7
- phytotoxicity (visual assessment 0-10) (Kentucky bluegrass; 12 g ai/ha, 4 weeks): 5
- phytotoxicity (visual assessment 0-10) (Kentucky bluegrass; 25 g ai/ha, 2 weeks): 10
- phytotoxicity (visual assessment 0-10) (Kentucky bluegrass; 25 g ai/ha, 4 weeks): 10
- phytotoxicity (visual assessment 0-10) (Kentucky bluegrass; 50 g ai/ha, 2 weeks): 10
- phytotoxicity (visual assessment 0-10) (Kentucky bluegrass; 50 g ai/ha, 4 weeks): 10
- phytotoxicity (visual assessment 0-10) (Kentucky bluegrass; 100 g ai/ha, 2 weeks): 10
- phytotoxicity (visual assessment 0-10) (Kentucky bluegrass; 100 g ai/ha, 4 weeks): 10
- phytotoxicity (visual assessment 0-10) (Kentucky bluegrass; 200 g ai/ha, 2 weeks): 10
- phytotoxicity (visual assessment 0-10) (Kentucky bluegrass; 200 g ai/ha, 4 weeks): 10
- phytotoxicity (visual assessment 0-10) (Kentucky bluegrass; 400 g ai/ha, 2 weeks): 10
- phytotoxicity (visual assessment 0-10) (Kentucky bluegrass; 400 g ai/ha, 4 weeks): 10
- phytotoxicity to cool season turfgrass (cool season turfgrass; 25 g ai/ha or more): completely withered

SMILES: COc1cc(OC)nc(NC(=O)NS(=O)(=O)c2ncccc2C(F)(F)F)n1 [Control chemical No. 2, Flazasulfuron, reference compound]
- Effect on Viola arvensis (Viola arvensis; After 7 days): 20
- Effect on Viola arvensis (Viola arvensis; After 14 days): 50
- phytotoxicity (visual assessment 0-10) (Perennial rye grass; 3 g ai/ha, 2 weeks): 10
- phytotoxicity (visual assessment 0-10) (Perennial rye grass; 3 g ai/ha, 4 weeks): 10
- phytotoxicity (visual assessment 0-10) (Perennial rye grass; 6 g ai/ha, 2 weeks): 10
- phytotoxicity (visual assessment 0-10) (Perennial rye grass; 6 g ai/ha, 4 weeks): 10
- phytotoxicity (visual assessment 0-10) (Perennial rye grass; 12 g ai/ha, 2 weeks): 10
- phytotoxicity (visual assessment 0-10) (Perennial rye grass; 12 g ai/ha, 4 weeks): 10
- phytotoxicity (visual assessment 0-10) (Perennial rye grass; 25 g ai/ha, 2 weeks): 10
- phytotoxicity (visual assessment 0-10) (Perennial rye grass; 25 g ai/ha, 4 weeks): 10
- phytotoxicity (visual assessment 0-10) (Perennial rye grass; 50 g ai/ha, 2 weeks): 10
- phytotoxicity (visual assessment 0-10) (Perennial rye grass; 50 g ai/ha, 4 weeks): 10
- phytotoxicity (visual assessment 0-10) (Perennial rye grass; 100 g ai/ha, 2 weeks): 10
- phytotoxicity (visual assessment 0-10) (Perennial rye grass; 100 g ai/ha, 4 weeks): 10
- phytotoxicity (visual assessment 0-10) (Perennial rye grass; 200 g ai/ha, 2 weeks): 10
- phytotoxicity (visual assessment 0-10) (Perennial rye grass; 200 g ai/ha, 4 weeks): 10
- phytotoxicity (visual assessment 0-10) (Perennial rye grass; 400 g ai/ha, 2 weeks): 10
- phytotoxicity (visual assessment 0-10) (Perennial rye grass; 400 g ai/ha, 4 weeks): 10
- safety to Zoysia japonica (Zoysia japonica; 50 g ai/ha or less): safe
- phytotoxicity (visual assessment 0-10) (Zoysia japonica; 3 g ai/ha, 2 weeks): 0
- phytotoxicity (visual assessment 0-10) (Zoysia japonica; 3 g ai/ha, 4 weeks): 0
- phytotoxicity (visual assessment 0-10) (Zoysia japonica; 6 g ai/ha, 2 weeks): 0
- phytotoxicity (visual assessment 0-10) (Zoysia japonica; 6 g ai/ha, 4 weeks): 0
- phytotoxicity (visual assessment 0-10) (Zoysia japonica; 12 g ai/ha, 2 weeks): 0
- phytotoxicity (visual assessment 0-10) (Zoysia japonica; 12 g ai/ha, 4 weeks): 0
- phytotoxicity (visual assessment 0-10) (Zoysia japonica; 25 g ai/ha, 2 weeks): 0
- phytotoxicity (visual assessment 0-10) (Zoysia japonica; 25 g ai/ha, 4 weeks): 0
- phytotoxicity (visual assessment 0-10) (Zoysia japonica; 50 g ai/ha, 2 weeks): 1
- phytotoxicity (visual assessment 0-10) (Zoysia japonica; 50 g ai/ha, 4 weeks): 1
- phytotoxicity (visual assessment 0-10) (Zoysia japonica; 100 g ai/ha, 2 weeks): 2
- phytotoxicity (visual assessment 0-10) (Zoysia japonica; 100 g ai/ha, 4 weeks): 2
- phytotoxicity (visual assessment 0-10) (Zoysia japonica; 200 g ai/ha, 2 weeks): 4
- phytotoxicity (visual assessment 0-10) (Zoysia japonica; 200 g ai/ha, 4 weeks): 3
- phytotoxicity (visual assessment 0-10) (Zoysia japonica; 400 g ai/ha, 2 weeks): 7
- phytotoxicity (visual assessment 0-10) (Zoysia japonica; 400 g ai/ha, 4 weeks): 6
- safety to warm season turf grass (warm season turf grass): have a safety
- phytotoxicity (visual assessment 0-10) (Kentucky bluegrass; 3 g ai/ha, 2 weeks): 10
- phytotoxicity (visual assessment 0-10) (Kentucky bluegrass; 3 g ai/ha, 4 weeks): 10
- phytotoxicity (visual assessment 0-10) (Kentucky bluegrass; 6 g ai/ha, 2 weeks): 10
- phytotoxicity (visual assessment 0-10) (Kentucky bluegrass; 6 g ai/ha, 4 weeks): 10
- phytotoxicity (visual assessment 0-10) (Kentucky bluegrass; 12 g ai/ha, 2 weeks): 10
- phytotoxicity (visual assessment 0-10) (Kentucky bluegrass; 12 g ai/ha, 4 weeks): 10
- phytotoxicity (visual assessment 0-10) (Kentucky bluegrass; 25 g ai/ha, 2 weeks): 10
- phytotoxicity (visual assessment 0-10) (Kentucky bluegrass; 25 g ai/ha, 4 weeks): 10
- phytotoxicity (visual assessment 0-10) (Kentucky bluegrass; 50 g ai/ha, 2 weeks): 10
- phytotoxicity (visual assessment 0-10) (Kentucky bluegrass; 50 g ai/ha, 4 weeks): 10
- phytotoxicity (visual assessment 0-10) (Kentucky bluegrass; 100 g ai/ha, 2 weeks): 10
- phytotoxicity (visual assessment 0-10) (Kentucky bluegrass; 100 g ai/ha, 4 weeks): 10
- phytotoxicity (visual assessment 0-10) (Kentucky bluegrass; 200 g ai/ha, 2 weeks): 10
- phytotoxicity (visual assessment 0-10) (Kentucky bluegrass; 200 g ai/ha, 4 weeks): 10
- phytotoxicity (visual assessment 0-10) (Kentucky bluegrass; 400 g ai/ha, 2 weeks): 10
- phytotoxicity (visual assessment 0-10) (Kentucky bluegrass; 400 g ai/ha, 4 weeks): 10
- phytotoxicity to cool season turfgrass (cool season turfgrass; application amount as low as 3 g ai/ha): complete withering; also recorded: completely withered
- safety to cool season turf grass (cool season turf grass): no safety
